Assay results from patent publication US20060263294A1, “Tumor targeting agents and uses thereof” (KARYON OY, priority 2002, published 2006).
Bridge positions count the residues as written; N and C are the ends. Peptide text beside a SMILES is read from it. * marks the point of attachment. X1 = COc1cccc2c1C(=O)c1c(O)c3c(c(O)c1C2=O)C[C@@](C)(/C(CO)=N/OCC(=O)*)C[C@@H]3OC1CC(N)C(O)C(C)O1

System: C8161M/T1 melanoma cells tumours
Test: Therapeutic effect of targeting agent comprising cytotoxic effector unit on melanoma tumors
Assay type: in vivo, Athymic-nu mice
Settings: 1,43 mg/kg i.v. twice a week, five doses; s.c. C8161M/T1 melanoma; FIG. 1
Experimental: 1 million C8161M/T1 melanoma cells were injected subcutaneously into flank of eight Athymic-nu mice and tumours were allowed to grow for one week. The mice were then divided into three groups those received the following treatments: • Group DMEM: two mice, DMEM only • Group Dox: two mice, 1,43 mg/kg doxorubicin dissolved in DMEM • Group pept+dox: four mice, 1,43 mg/kg Dxrb-Aoa-DLRSK (doxorubicin linked to targeting mofif LRS) dissolved in DMEM (dose equimolar to Group Dox)
Treatments were administered i.v. twice a week (Tuesdays and Fridays), total of five doses were injected. Tumours were measured with a calliper in two perpendicular directions on each injection day and on the day the animals were sacrificed. Tumour volume was calculated by the formula for ellipsoid: Volume=(length×width^2)×0.5

COc1cccc2c1C(=O)c1c(O)c3c(c(O)c1C2=O)C[C@@](C)(/C(CO)=N/OCC(=O)N[C@H]1CC(=O)NCCCC[C@@H](C(=O)O)NC(=O)[C@H](CO)NC(=O)[C@H](CCCNC(=N)N)NC(=O)[C@H](CC(C)C)NC1=O)C[C@@H]3OC1CC(N)C(O)C(C)O1 (some centres unmarked) [Dxrb-Aoa-DLRSK] (X1-DLRSK-OH; lactam 1-5)
selective targeting to melanoma tumor in vivo: selectively targets to melanoma tumor in vivo
therapeutic effect (tumour volume) compared with doxorubicin: significantly increases the therapeutic effect of doxorubicin
